Assay results as given in US20200123104A1, “PHARMACEUTICAL AGENT THAT BINDS THE P2X7 RECEPTOR” (Indiana University Research and Technology Corporation, priority 2017, published 2020).
Several values for one entry are separate records, joined by “and”; a condition that tells them apart may be missing. Equal entries are not always repeated.

Experiments:
[1] = biological target: T1, human P2X7R (HEK293-hP2X7R) (Homo sapiens, UniProt Q99572); experiment: Saturation and kinetic radioligand binding of 11C-GSK1482160 to HEK293-hP2X7R
T1 construct: expressed in transfected cells; host or cells: HEK293
T1 sequence (Q99572 1-595): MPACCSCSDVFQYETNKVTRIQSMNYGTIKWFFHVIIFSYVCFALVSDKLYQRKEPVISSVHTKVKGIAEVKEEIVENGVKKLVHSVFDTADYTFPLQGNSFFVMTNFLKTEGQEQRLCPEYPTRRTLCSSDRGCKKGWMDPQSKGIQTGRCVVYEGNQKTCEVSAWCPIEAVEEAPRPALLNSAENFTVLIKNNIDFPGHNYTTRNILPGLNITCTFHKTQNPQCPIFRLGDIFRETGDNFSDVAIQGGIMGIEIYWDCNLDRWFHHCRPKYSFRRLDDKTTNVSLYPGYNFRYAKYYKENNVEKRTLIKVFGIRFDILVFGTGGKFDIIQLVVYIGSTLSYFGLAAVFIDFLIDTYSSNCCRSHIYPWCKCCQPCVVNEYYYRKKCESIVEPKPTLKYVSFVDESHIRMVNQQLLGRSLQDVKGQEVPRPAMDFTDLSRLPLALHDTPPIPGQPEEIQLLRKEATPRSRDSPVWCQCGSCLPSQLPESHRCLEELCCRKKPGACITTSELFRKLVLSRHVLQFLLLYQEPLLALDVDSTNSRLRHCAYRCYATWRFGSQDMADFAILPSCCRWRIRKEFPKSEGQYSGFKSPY
Procedure: Receptor density (Bmax) is determined by a saturation approach as employed with each P2X7-receptor ligand employing [^11C]GSK1482160 as a convenient reference ligand that is expected to bind in the same region of the receptor. […] Samples and control wells are run in triplicate at each concentration. After equilibrium has been reached, separation of bound from free [^11C]GSK1482160 radioligand is performed using a 96-well filtration apparatus. To estimate receptor association (kon) and dissociation (koff) rates, an association/dissociation kinetic experiment is performed. Association is measured as a function of time using cell membrane homogenate from HEK-P2X7 cells incubated with 2-4 concentrations of the ^18F-radioligand. Dissociation is measured in the presence of excess authentic standard once at steady state according to published methods. Radioactivity for both studies is measured on the filters (or filter plates) using a Perkin-Elmer TopCount Data is analyzed and plotted using GraphPad Prism to obtain Bmax and Kd values for the compound.

P2X7 receptor [2] = biological target: T2, P2X7 receptor (Homo sapiens, UniProt Q99572); details: read-out: P2X7 receptor affinity (KB) (converted); cited from earlier work
T2 sequence (Q99572 1-595): T1 sequence (Q99572 1-595)

[3] = in vivo; cited from earlier work
P2X7 receptor [4] = biological target: T2, P2X7 receptor; experiment: Competitive binding with [11C]GSK1482160 as reference tracer, membrane homogenate of HEK cells transfected with the human P2X7 gene; design: host or cells: HEK (human embryonic kidney) cells, membrane homogenate; details: HEK-hP2X7 membrane homogenate, [11C]GSK1482160 reference tracer
Procedure: Samples and control wells are run in triplicate at each concentration. After equilibrium has been reached, separation of bound from free [^11C]GSK1482160 radioligand is performed using a 96-well filtration apparatus. To estimate receptor association (kon) and dissociation (koff) rates, an association/dissociation kinetic experiment is performed. Association is measured as a function of time using cell membrane homogenate from HEK-P2X7 cells incubated with 2-4 concentrations of the ^18F-radioligand. Dissociation is measured in the presence of excess authentic standard once at steady state according to published methods. Radioactivity for both studies is measured on the filters (or filter plates) using a Perkin-Elmer TopCount Data is analyzed and plotted using GraphPad Prism to obtain Bmax and Kd values for the compound.

For `[11CH3]N1C(=O)CC[C@H]1C(=O)NCc1cccc(C(F)(F)F)c1Cl` [[^11C]GSK1482160], the Kd ([1]; read-out: K) is given as 1.15 ± 0.12 nM, the koff ([1]; read-out: dissociation constant koff (converted)) is given as 0.00425 s⁻¹ and the Kb (P2X7 receptor [2]) is given as 95.9 nM and 95 nM. For the same compound, the “crossing of the blood-brain barrier” value [3] was “readily crosses the blood-brain barrier” and the Ki (P2X7 receptor [4]) was 5.14 ± 0.85 nM.
